Data published in patent US8765746B2 (Millennium Pharmaceuticals, Inc., priority 2010, dated 2014).

Columns and labels:
Assay type in all cases: biochemical
PI3Kdelta = molecular target: T1, PI3Kdelta (Homo sapiens, UniProt O00329); assay: Human PI3K delta enzyme assay (HTRF, as for PI3K alpha); conditions: read-out: PI3Kdelta % inh
T1 construct: His (N); host or cells: SF9 insect cells (baculovirus)
Description: (§1) The catalytic subunits of PI3Ks are cloned into either pDEST8(p110 alpha) or pDEST10(p110beta, p110delta, and p110gamma) as N-terminal His tagged fusion proteins using the Gateway system (Invitrogen, catalog#11804-010 for pDEST8 and 11806-015 for pDEST10). The sequences are verified before recombinant protein expression using the Baculovirus Expression System with Gateway® Technology. The accession numbers for the subunits are as follows:
(§2) The regulatory subunits of PI3Ks are cloned into pDEST8 as un-tagged protein using the Gateway system (Catalog#11804-010). The sequences are verified before recombinant protein expression using the Baculovirus Expression System with Gateway® Technology. The accession numbers for the subunits are as follows:
(§3) For expression of the p110 complexes, the p85 (MOI of 4) is co-infected with p110 alpha, beta, and delta respectively (1MOI) in SF9 cells and harvested at 60 hours post co-infection. P110 gamma was infected at 1 MOI and harvested at 60 hours post infection.
(§4) For purification, PI3Ks are purified by Ni-NTA Agarose (Qiagen #30250) followed by Mono Q 10/100 GL (Ge Healthcare #17-5167-01). VPS34 is purified by Glutathione Sepharose 4 Fast Flow (GE Healthcare #17-5132-03) followed by HiTrap Q (GE Healthcare #17-1153-01).
(§5) 0.5 uL compounds in DMSO are added to wells of a 384 well microtitre plate (Corning 3575). At room temperature: 10 ul PI3K reaction buffer (50 mM Hepes, 5 mM DTT, 150 mM NaCl, 10 mM beta-glycerophosphate, 10 mM MgCl2, 0.25 mM sodium cholate and 0.001% CHAPS, pH 7.00) containing ATP (25 uM, Promega) is added followed immediately by 10 ul PI3K reaction buffer containing di-C8 PI(4,5)P2 (3.5 uM, CellSignals) and PI3Kalpha (0.4875 nM, Millennium Protein Sciences Group) and the mixture is incubated with shaking at room temperature for 30 minutes. Then 5 ul PI3K stop mix (50 mM Hepes, 5 mM DTT, 150 mM NaCl, 0.01% Tween-20, 15 mM EDTA and 25 nM biotin-PI(3,4,5)P3 (Echelon) is added to quench the reaction followed immediately by addition of 5 ul HTRF detection mix (50 mM Hepes, 5 mM DTT, 150 mM NaCl, 0.01% Tween-20, 40 mM KF, 10 nM GST:GRP-1 PH domain (Millennium Protein Sciences Group), 15 nM Streptavidin-XL (CisBio) and 0.375 nM anti-GST Eu++ antibody (CisBio) at pH 7.00). The plates are then incubated for 1 hour at room temperature with shaking and then read on a BMG PheraStar Plus reader.
(§6) 2) Human PI3K beta, delta and gamma isoforms are tested using the procedure described for PI3K alpha above but with the following changes: PI3K beta (5.25 nM), PI3K delta (0.75 nM) and PI3K gamma (5 nM). All isoforms supplied by Millennium Protein Science Group.

PI3Kalpha = molecular target: T2, PI3Kalpha (Homo sapiens, UniProt P42336); assay: Human PI3Kα enzyme assay (HTRF); conditions: read-out: PI3Kalpha % inh
T2 construct: His (N); host or cells: SF9 insect cells (baculovirus)
Outline: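 His-tagged p110α co-expressed with p85 in Sf9 cells was reacted for 30 min at room temperature in pH 7.00 Hepes buffer with 10 mM MgCl2. Addition solutions held 25 uM ATP, 3.5 uM di-C8 PI(4,5)P2 and 0.4875 nM enzyme. The reaction was quenched with EDTA/biotin-PIP3 and detected by HTRF (GST-GRP-1 PH domain, streptavidin-XL, Eu anti-GST) after 1 h.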

PI3Kgamma = molecular target: T3, PI3Kgamma (Homo sapiens, UniProt P48736); assay: Human PI3K gamma enzyme assay (HTRF, as for PI3K alpha); conditions: for inhibition at 1.11 µM: read-out: PI3Kgamma % inh
T3 construct: His (N); host or cells: SF9 insect cells (baculovirus)
Description: as §1, §2, §3, §4, §5, §6

PI3Kbeta = molecular target: T4, PI3Kbeta (Homo sapiens, UniProt P42338); assay: Human PI3K beta enzyme assay (HTRF, as for PI3K alpha); conditions: for inhibition at 1.11 µM: read-out: PI3Kbeta % inh; for IC50: read-out: IC50 (inhibit PI3Kbeta)
T4 construct: His (N); host or cells: SF9 insect cells (baculovirus)
Outline: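 N-His p110β/δ co-expressed with untagged p85 in Sf9, p110γ alone. Enzyme 5.25 nM (β), 0.75 nM (δ), 5 nM (γ), with ATP 25 uM and di-C8 PI(4,5)P2 3.5 uM (added-solution levels), pH 7.00, 30 min RT. HTRF read-out: biotin-PIP3, GST-GRP-1 PH domain, Eu anti-GST, streptavidin-XL.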

VPS34 = molecular target: T5, VPS34 (Homo sapiens, UniProt Q8NEB9); assay: Human VPS34 enzyme assay (Adapta Universal Kinase Assay); conditions: for inhibition at 1.11 µM: 1 h, read-out: VPS34 % ihn
T5 construct: GST (N); host or cells: SF9 insect cells (baculovirus)
Protocol: VPS34 (accession number GB:BC033004) is cloned into pDEST20-Thombin as N-terminal GST tagged fusion proteins using the Gateway system (Invitrogen, catalog#11804-013). The sequences are verified before recombinant protein expression using the Baculovirus Expression System with Gateway® Technology.
For expression VPS34 was infected at 1MOI in SF9 cells and harvested 72 hours post infection.
For purification, VPS34 is purified by Glutathione Sepharose 4 Fast Flow (GE Healthcare #17-5132-03) followed by HiTrap Q (GE Healthcare #17-1153-01).
3) VPS34 is assayed using Adapta™ Universal Kinase Assay Kit (Invitrogen).
4) Human VPS34 enzyme assay method
100 mL compounds in DMSO are added to wells of a 384 well microtitre plate (Greiner 780076). At room temperature: 5 ul VPS34 reaction buffer (Invitrogen Assay Buffer Q (diluted 1 in 5 with nanopure water) plus 2 mM DTT and 2 mM MnCl2) containing ATP (20 uM, Promega) and 200 uM PI-PS substrate (Invitrogen PV5122) is added followed immediately by 5 ul VPS34 reaction buffer (as above) containing VPS34 (5 nM, Millennium Protein Sciences Group) and the mixture is incubated with shaking at room temperature for 1 hour. Then 5 ul VPS34 stop-detect mix (as per Invitrogen Adapta Assay kit (PV5009) instructions (contains kinase quench buffer, TR-FRET buffer, Adapta Eu anti-ADP antibody and Alexa Fluor 647 ADP tracer)) is added to quench the reaction. The plates are then incubated for 30 minutes at room temperature with shaking and then read on a BMG PheraStar Plus reader.

T1 sequence (O00329 whole entry): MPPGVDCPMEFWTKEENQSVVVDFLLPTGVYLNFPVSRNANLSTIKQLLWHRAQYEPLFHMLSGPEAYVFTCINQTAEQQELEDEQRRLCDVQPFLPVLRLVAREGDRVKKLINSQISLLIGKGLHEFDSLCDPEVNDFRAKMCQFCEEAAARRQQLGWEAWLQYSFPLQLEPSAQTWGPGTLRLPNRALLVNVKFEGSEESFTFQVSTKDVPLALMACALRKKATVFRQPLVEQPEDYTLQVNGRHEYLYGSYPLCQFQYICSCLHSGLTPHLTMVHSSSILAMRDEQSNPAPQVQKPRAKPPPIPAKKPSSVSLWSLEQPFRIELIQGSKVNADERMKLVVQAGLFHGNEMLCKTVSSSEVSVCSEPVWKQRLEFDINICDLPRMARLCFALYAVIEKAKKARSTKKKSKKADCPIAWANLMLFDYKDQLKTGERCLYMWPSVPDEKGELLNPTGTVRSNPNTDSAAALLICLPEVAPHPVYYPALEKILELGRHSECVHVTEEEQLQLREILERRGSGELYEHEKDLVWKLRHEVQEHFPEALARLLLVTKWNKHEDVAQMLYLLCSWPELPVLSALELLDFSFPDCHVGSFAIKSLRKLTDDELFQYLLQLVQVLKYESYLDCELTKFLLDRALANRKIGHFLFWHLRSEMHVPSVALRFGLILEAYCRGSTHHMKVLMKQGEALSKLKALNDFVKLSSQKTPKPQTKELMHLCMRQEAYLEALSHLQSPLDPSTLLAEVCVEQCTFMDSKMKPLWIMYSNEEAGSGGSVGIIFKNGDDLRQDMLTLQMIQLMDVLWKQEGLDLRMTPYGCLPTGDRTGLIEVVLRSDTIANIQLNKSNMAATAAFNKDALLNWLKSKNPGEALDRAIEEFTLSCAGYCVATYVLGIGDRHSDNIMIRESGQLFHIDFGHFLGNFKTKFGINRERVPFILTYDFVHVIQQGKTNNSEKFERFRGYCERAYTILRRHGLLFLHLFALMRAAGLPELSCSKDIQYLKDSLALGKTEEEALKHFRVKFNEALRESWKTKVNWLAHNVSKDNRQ
T1 sequence (P27986 whole entry partner): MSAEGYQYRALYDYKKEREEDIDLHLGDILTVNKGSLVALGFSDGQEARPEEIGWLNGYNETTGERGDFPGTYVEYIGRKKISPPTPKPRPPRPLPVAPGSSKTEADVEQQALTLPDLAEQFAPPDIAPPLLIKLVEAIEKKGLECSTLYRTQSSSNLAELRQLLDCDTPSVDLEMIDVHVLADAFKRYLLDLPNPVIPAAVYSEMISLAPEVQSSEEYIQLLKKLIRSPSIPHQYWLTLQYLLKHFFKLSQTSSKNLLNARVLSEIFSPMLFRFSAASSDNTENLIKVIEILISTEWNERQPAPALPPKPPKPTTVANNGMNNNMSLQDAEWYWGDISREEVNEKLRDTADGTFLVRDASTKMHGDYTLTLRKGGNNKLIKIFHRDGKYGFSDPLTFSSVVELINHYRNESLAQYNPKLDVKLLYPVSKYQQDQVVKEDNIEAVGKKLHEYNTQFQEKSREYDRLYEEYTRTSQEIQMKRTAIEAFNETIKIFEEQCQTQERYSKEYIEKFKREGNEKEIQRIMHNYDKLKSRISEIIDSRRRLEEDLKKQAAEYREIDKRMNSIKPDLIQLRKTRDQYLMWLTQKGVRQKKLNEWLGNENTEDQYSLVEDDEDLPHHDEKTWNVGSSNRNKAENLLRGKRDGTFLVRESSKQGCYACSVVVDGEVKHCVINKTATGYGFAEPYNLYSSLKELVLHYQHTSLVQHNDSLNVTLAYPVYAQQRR
T2 sequence (P42336 whole entry): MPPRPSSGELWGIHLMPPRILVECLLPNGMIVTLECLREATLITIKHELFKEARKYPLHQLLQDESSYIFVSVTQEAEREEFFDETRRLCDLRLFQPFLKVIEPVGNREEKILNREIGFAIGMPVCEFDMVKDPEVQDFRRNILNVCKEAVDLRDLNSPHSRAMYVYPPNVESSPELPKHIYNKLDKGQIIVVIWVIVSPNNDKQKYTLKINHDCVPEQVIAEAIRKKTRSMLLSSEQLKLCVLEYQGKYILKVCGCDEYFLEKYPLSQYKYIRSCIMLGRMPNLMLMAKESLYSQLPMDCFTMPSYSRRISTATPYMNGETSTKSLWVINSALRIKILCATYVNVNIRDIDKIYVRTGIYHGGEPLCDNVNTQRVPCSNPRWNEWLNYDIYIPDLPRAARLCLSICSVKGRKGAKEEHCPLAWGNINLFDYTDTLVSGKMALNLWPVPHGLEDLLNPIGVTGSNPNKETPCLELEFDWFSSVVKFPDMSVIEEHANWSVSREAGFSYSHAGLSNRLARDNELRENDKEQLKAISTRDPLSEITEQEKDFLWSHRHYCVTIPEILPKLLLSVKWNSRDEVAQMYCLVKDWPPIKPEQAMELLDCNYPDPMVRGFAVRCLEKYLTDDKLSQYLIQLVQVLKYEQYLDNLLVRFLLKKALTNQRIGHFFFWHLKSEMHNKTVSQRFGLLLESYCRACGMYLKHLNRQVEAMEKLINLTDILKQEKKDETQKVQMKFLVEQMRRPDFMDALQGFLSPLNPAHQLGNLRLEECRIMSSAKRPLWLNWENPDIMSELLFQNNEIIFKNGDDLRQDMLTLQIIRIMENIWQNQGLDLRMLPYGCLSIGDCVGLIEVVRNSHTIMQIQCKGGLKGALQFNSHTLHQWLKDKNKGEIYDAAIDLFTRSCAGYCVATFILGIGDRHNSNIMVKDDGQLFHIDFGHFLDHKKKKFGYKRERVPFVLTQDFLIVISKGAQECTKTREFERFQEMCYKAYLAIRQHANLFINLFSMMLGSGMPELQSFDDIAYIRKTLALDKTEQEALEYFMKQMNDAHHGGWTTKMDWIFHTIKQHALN
T2 sequence (P27986 whole entry partner): as the sequence (P27986 whole entry partner) above
T5 sequence (Q8NEB9 whole entry): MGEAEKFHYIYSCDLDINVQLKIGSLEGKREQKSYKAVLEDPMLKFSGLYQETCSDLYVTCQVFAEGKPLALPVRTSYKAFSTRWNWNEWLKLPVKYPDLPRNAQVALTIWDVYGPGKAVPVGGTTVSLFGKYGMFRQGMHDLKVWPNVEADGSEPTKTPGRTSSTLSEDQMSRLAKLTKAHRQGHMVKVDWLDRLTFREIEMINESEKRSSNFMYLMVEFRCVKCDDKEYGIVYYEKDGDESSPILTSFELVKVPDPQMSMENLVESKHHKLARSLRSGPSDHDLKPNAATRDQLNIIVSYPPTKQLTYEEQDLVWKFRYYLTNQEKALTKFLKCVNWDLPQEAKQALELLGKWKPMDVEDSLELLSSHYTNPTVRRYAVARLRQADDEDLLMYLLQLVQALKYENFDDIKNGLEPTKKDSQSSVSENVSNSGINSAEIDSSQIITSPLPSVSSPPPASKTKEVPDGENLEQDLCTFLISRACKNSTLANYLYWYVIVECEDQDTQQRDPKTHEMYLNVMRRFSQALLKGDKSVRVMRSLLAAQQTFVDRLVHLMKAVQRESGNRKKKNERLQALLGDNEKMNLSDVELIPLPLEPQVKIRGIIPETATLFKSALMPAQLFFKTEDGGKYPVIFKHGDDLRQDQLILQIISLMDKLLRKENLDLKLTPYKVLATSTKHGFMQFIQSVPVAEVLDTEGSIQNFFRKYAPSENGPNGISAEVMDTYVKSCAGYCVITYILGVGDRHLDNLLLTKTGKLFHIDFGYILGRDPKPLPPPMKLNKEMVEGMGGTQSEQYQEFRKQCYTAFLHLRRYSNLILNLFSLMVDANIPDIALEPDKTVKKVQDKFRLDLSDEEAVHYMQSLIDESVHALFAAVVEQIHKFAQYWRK
T3 sequence (P48736 whole entry): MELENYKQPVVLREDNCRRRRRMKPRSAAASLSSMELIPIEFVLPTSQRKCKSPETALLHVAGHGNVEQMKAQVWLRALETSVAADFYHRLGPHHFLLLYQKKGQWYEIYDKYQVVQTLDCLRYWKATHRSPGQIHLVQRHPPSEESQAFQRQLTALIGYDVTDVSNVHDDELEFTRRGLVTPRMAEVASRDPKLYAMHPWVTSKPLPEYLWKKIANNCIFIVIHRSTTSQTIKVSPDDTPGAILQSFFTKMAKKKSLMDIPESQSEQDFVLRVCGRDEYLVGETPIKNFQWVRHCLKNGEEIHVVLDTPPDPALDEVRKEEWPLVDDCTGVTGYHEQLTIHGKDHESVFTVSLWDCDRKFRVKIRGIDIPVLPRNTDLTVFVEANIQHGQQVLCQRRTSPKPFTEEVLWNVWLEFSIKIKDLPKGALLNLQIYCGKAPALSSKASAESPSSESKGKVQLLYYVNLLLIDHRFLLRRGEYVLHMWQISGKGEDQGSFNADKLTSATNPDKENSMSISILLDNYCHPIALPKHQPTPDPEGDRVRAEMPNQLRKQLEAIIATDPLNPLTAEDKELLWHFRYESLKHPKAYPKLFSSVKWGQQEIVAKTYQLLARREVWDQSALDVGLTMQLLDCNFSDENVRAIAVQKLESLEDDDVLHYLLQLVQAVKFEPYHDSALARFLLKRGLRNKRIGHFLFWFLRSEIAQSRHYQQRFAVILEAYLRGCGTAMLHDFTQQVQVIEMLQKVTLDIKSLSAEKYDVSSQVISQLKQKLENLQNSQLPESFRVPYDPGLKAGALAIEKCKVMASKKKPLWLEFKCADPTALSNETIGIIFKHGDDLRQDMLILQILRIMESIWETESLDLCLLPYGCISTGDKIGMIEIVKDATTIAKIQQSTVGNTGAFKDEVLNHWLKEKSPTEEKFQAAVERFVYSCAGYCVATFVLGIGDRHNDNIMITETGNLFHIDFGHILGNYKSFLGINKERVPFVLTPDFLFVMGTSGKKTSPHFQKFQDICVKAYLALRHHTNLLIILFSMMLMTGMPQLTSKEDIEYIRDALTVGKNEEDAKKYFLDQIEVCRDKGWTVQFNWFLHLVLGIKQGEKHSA

| SMILES | inhibition at 1.11 µM (PI3Kdelta) [%] | inhibition at 1.11 µM (PI3Kalpha) [%] | inhibition at 1.11 µM (PI3Kgamma) [%] | inhibition at 1.11 µM (PI3Kbeta) [%] | IC50 (PI3Kbeta) [nM] | inhibition at 1.11 µM (VPS34) [%] | PI3Kgamma % inh (PI3Kgamma; at 1.11 μM) [%] | VPS34 % ihn (VPS34; at 1.11 μM) [%] |
| --- | --- | --- | --- | --- | --- | --- | --- | --- |
| CC(=O)Nc1cc(-c2cc3c(s2)C(=O)NCCC3c2ccc(Cl)cc2)ccn1 (centres unmarked) [Compound 1, N-{4-[4-(4-chlorophenyl)-8-oxo-5,6,7,8-tetrahydro-4H-thieno[2,3-c]azepin-2-yl]pyridin-2-yl}acetamide] | 103 | 49.8 | 63.4 | 100 | < 100 | 29.3 |  |  |
| Clc1ccc(C2CCc3cn[nH]c3-c3sc(-c4ccncc4)cc32)cc1 (centres unmarked) [Compound 6, 6-(4-chlorophenyl)-8-pyridin-4-yl-1,4,5,6-tetrahydrothieno[3′,2′:6,7]cyclohepta[1,2-c]pyrazole] | 70.7 | 27 | 14 | 97.9 | < 100 | 10.1 |  |  |
| CC(=O)Nc1cc(-c2cc3c(s2)C(=O)CCC3c2ccc(Cl)cc2)ccn1 (centres unmarked) [Compound 7, N-{4-[4-(4-chlorophenyl)-7-oxo-4,5,6,7-tetrahydro-1-benzothien-2-yl]pyridin-2-yl}acetamide] | 91.3 | 20.5 | 6.5 | 64.6 | 100 to 1000 | 9.6 |  |  |
| CC1(C)CC(=O)c2sc(-c3ccncc3)cc2C1c1ccc(Cl)cc1 (centres unmarked) [Compound 10, 4-(4-chlorophenyl)-5,5-dimethyl-2-pyridin-4-yl-5,6-dihydro-1-benzothiophen-7(4H)-one] | 32.4 | 0.2 | 6.7 | 71 | 100 to 1000 | 0.1 |  |  |
| Cc1nn2ccccc2c1-c1nc2c(s1)NC(=O)CCC2c1ccc(Cl)cc1 (centres unmarked) [Compound 11, 8-(4-chlorophenyl)-2-(2-methylpyrazolo[1,5-a]pyridin-3-yl)-4,6,7,8-tetrahydro-5H-[1,3]thiazolo[5,4-b]azepin-5-one] | 60.3 | 36 | 5.2 | 71.6 | 100 to 1000 | -4.2 |  |  |
| Clc1ccc(C2Cc3cn[nH]c3-c3sc(-c4ccncc4)cc32)cc1 (centres unmarked) [Compound 12, 5-(4-chlorophenyl)-7-pyridin-4-yl-4,5-dihydro-1H-thieno[3,2-g]indazole] | 69 | 9.4 | 31 | 73.2 | 100 to 1000 | -6 |  |  |
| O=C1CCCC(O)(c2ccc(Cl)cc2)c2cc(-c3ccncc3)sc21 (centres unmarked) [Compound 15, 4-(4-chlorophenyl)-4-hydroxy-2-pyridin-4-yl-4,5,6,7-tetrahydro-8H-cyclohepta[b]thiophen-8-one] | 26.4 | 3.1 | 4 | 65 | 100 to 1000 | 2 |  |  |
| CC1=CC(=O)Nc2sc(-c3ccncc3)cc2C1(C)c1ccc(Cl)cc1 (centres unmarked) [Compound 17, 4-(4-chlorophenyl)-4,5-dimethyl-2-pyridin-4-yl-4,8-dihydro-7H-thieno[2,3-b]azepin-7-one] | 47.9 | 12.4 | 8.6 | 96.8 | < 100 | 28.5 |  |  |
| O/N=C1/CCC(c2ccc(Cl)cc2)c2cc(-c3ccncc3)sc21 (centres unmarked) [Compound 18, (7Z)-4-(4-chlorophenyl)-2-pyridin-4-yl-5,6-dihydro-1-benzothiophen-7(4H)-one oxime] | 53.8 | 18.8 | 21.5 | 104 | < 100 | -4.1 |  |  |
| O=C1CCCC(c2ccc(Cl)cc2)c2cc(-c3ccncc3)sc21 (centres unmarked) [Compound 19, 4-(4-chlorophenyl)-2-pyridin-4-yl-4,5,6,7-tetrahydro-8H-cyclohepta[b]thiophen-8-one] | 43.1 | -0.4 | 8.1 | 86.5 | 100 to 1000 | -6.8 |  |  |
| Cc1nn2ccccc2c1-c1nc2c(s1)C(=O)CCC2c1ccc(Cl)cc1 (centres unmarked) [Compound 20, 4-(4-chlorophenyl)-2-(2-methylpyrazolo[1,5-a]pyridin-3-yl)-5,6-dihydro-1,3-benzothiazol-7(4H)-one] | 60.4 | 23.6 | 6.6 | 68.2 | 100 to 1000 | 0.9 |  |  |
| O=C1CC(c2ccc(Cl)cc2)c2cc(-c3ccncc3)sc21 (centres unmarked) [Compound 23, 4-(4-chlorophenyl)-2-(pyridin-4-yl)-4H-cyclopenta[b]thiophen-6(5H)-one] | 23 | 3.1 | 10.9 | 92.8 | 100 to 1000 | -2 |  |  |
| O/N=C1\CCC(c2ccc(Cl)cc2)c2cc(-c3ccncc3)sc21 (centres unmarked) [Compound 24] | 54.2 | 13.8 | 16.9 | 98.1 |  | -6.9 |  |  |
| O=S1(=O)NC=C(c2ccc(Cl)cc2)c2cc(-c3ccncc3)sc21 [Compound 27, 4-(4-chlorophenyl)-6-pyridin-4-yl-2H-thieno[3,2-e][1,2]thiazine 1,1-dioxide] | 46 | 4.9 | 12.3 | 98.3 | 100 to 1000 | 8.5 |  |  |
| O=C1CC(c2ccc(Cl)cc2)c2cc(N3CCOCC3)sc21 (centres unmarked) [Compound 28, 4-(4-chlorophenyl)-2-morpholino-4H-cyclopenta[b]thiophen-6(5H)-one] | 75 | 15.7 |  | 105 | < 100 |  | 23.550 | 8.600 |
